{"source": "patent US20260069523A1", "about": "“SKIN CARE COMPOSITION AND USE THEREOF” (NANJING NUTRABUILDING BIO-TECH CO., LTD., priority 2023, published 2026)", "key": {"IL-6": {"test_system": "IL-6", "assay": "Anti-inflammatory test: IL-6 in UVB-stimulated keratinocytes", "assay_type": "cell-based, human", "conditions": "UV-B 50 mJ/cm^2 irradiated keratinocytes, 24 h, supernatant, maximum non-cytotoxic dose (combinations: half dose each)", "experimental": "(§1) Cell culture: HaCat, a normal human epidermal keratinocyte (NHEK) cell line, was purchased from Wuhan Saios Biotechnology Co., Ltd. The cells were stored in a humid environment (95% air and 5% carbon dioxide at 37° C.) and cultured in DMEM supplemented with 10% heat inactivated FBS, 2 mM glutamine and 1% penicillin/streptomycin. The culture was harvested and the cell morphology was examined by phase contrast microscope. Cell suspension was counted with a hemocytometer (Marienfeld, Germany) to monitor the number of cells.\n(§2) UVB stimulation: Keratinocytes were inoculated into a 12-well plate (50,000 cells/mL) and cultured to a confluency of ˜80%. The cells were washed once with phosphate buffered saline (PBS) at room temperature, 0.5 mL PBS was added to the cells, and then irradiated with ultraviolet rays. The cells were exposed to 50 mJ/cm^2 UV-B (Philips, 311 nm) for 2 minutes. […]\n(§3) Detection of inflammatory factors: the standard curve of each cytokine (TNF-α, IL-8, IL-6) were generated by using the reference cytokine samples provided by the kit. […] The absorbance (OD value) was measured by microplate reader at the wavelength of 450 nm, and the concentration was calculated according to the standard curve."}, "TNF-α": {"test_system": "TNF-α", "assay": "Anti-inflammatory test: TNF-α in UVB-stimulated keratinocytes", "assay_type": "cell-based, human", "conditions": "UV-B 50 mJ/cm^2 irradiated keratinocytes, 24 h, supernatant, maximum non-cytotoxic dose (combinations: half dose each)", "experimental": "as §1, §2, §3"}, "tyrosinase": {"test_system": "tyrosinase", "assay": "Whitening test: inhibition of tyrosinase", "conditions": "1 mg/mL sample solutions (combinations mixed 1:1 or 1:1:1), tyrosine substrate, 30° C., absorbance 475 nm"}, "IL-8": {"test_system": "IL-8", "assay": "Anti-inflammatory test: IL-8 in UVB-stimulated keratinocytes", "assay_type": "cell-based, human", "conditions": "UV-B 50 mJ/cm^2 irradiated keratinocytes, 24 h, supernatant, maximum non-cytotoxic dose (combinations: half dose each)", "experimental": "as §1, §2, §3"}}, "data": [{"smiles": "C[N+](C)(C)[C@@H](Cc1c[nH]c(=S)[nH]1)C(=O)[O-]", "note": "[EGT, ergothioneine]", "values": [{"measurement": "content of IL-6", "setting": "IL-6", "value": 28, "unit": "pg/mL"}, {"measurement": "content of TNF-α", "setting": "TNF-α", "value": "about 95 pg/ml"}, {"measurement": "inhibition rate on tyrosinase", "setting": "tyrosinase", "value": 68, "unit": "%"}, {"measurement": "content of IL-8", "setting": "IL-8", "value": 23, "unit": "pg/mL"}]}, {"smiles": "COc1cc(CCC(=O)CC(=O)CCc2ccc(O)c(OC)c2)ccc1O", "note": "[THC, tetrahydrocurcumin]", "values": [{"measurement": "content of IL-6", "setting": "IL-6", "value": 27, "unit": "pg/mL"}, {"measurement": "content of TNF-α", "setting": "TNF-α", "value": "about 90 pg/ml"}, {"measurement": "content of IL-8", "setting": "IL-8", "value": 25, "unit": "pg/mL"}]}]}
